Reference: US8680052B1, “Methods of treating, reducing the incidence of, and/or preventing ischemic events” (The Medicines Company, priority 2013, dated 2014)
Where two headings read alike, the source gives them in different places.

Tested on: patients with acute coronary syndromes undergoing PCI
Details: for IDR / MI / Mortality/MI/IDR / Mortality/Q-wave MI/IDR / Mortality/Q-wave MI/Stent thrombosis / Q-wave MI / Stent thrombosis / All-cause mortality: 30 days; for Angiographic complications (site reported): Abrupt vessel closure / Angiographic complications (site reported): Acute stent thrombosis / Angiographic complications (site reported): Need for urgent CABG / Angiographic complications (site reported): New thrombus or suspected thrombus / Angiographic complications (site reported): Threatened abrupt closure / Angiographic complications (site reported): Unsuccessful procedure: index PCI
Experimental: Patients were eligible for enrollment if they had stable angina, unstable angina, or non-ST-segment elevation (NSTE) MI with obstructive coronary artery disease and were scheduled to undergo PCI.
The infusion began within 30 minutes prior to PCI and continued for at least 2 hours or until the conclusion of the index procedure, whichever was longer. At the treating physician's discretion, the infusion could be continued for 4 hours.
All patients received aspirin 75-325 mg per local site standards. Adjunctive anticoagulants (unfractionated heparin, low molecular weight heparin, bivalirudin, or fondaparinux) and the procedural use of glycoprotein IIb/IIIa inhibitors were determined by the treating physician.
The primary efficacy endpoint was the 48-hour composite of all-cause mortality, MI, or ischemia-driven revascularization. Prespecified secondary efficacy endpoints included the composite of mortality or MI at 48 hours and 30 days; the composite of mortality, MI, or ischemia-driven revascularization at 30 days; the components of the composite endpoints at 48 hours and 30 days; stroke at 48 hours; abrupt closure, threatened abrupt closure, need for urgent coronary artery bypass grafting, or unsuccessful procedure during the index PCI; acute (24 hours) and 48 hours stent thrombosis; and all-cause mortality at 6 months and 1 year.
Rates of MI and ischemia-driven revascularization up to 30 days following the index procedure were assessed. Ischemia-driven revascularization was defined as symptoms of myocardial ischemia leading to urgent (within 24 hours of the last episode of ischemia) revascularization, which must have occurred after the index procedure concluded (i.e., guidewire removal). New electrocardiographic changes, acute pulmonary edema, ventricular arrhythmias, or hemodynamic instability could also constitute evidence of ischemia.
MI was defined by a new Q wave (duration >0.03 seconds) in two contiguous electrocardiographic leads or elevations in creatine kinase (CK) and CK-MB, including a rise of CK-MB≧3 times the local upper limit or normal and, when biomarkers were elevated prior to PCI, an additional 50% above baseline. One baseline troponin measurement was required for patients undergoing urgent PCI. Measurements of CK-MB were obtained at 2, 10, 17, and 24 hours post-PCI.
The primary efficacy analysis was to be determined in the modified intent-to-treat (mITT) population, defined as all randomized patients (excluding STEMI cohort) who received at least one dose of study drug and underwent the index PCI. The safety population consisted of all randomized patients who received any study drug. Patients in the safety analyses were assigned to a treatment arm based on treatment received, not as randomized.

COC(=O)[C@H](c1ccccc1Cl)N1CCc2sccc2C1 [Clopidogrel, clopidogrel, reference compound]
IDR (ITT With STEMI): 15 (3.0) no. (%) | MI (ITT With STEMI): 17 (3.4) no. (%) | Mortality/MI/IDR (ITT With STEMI): 41 (8.2) no. (%) | Mortality/Q-wave MI/IDR (ITT With STEMI): 31 (6.2) no. (%) | Mortality/Q-wave MI/Stent thrombosis (ITT With STEMI): 26 (5.2) no. (%) | Q-wave MI (ITT With STEMI): 0 (0.0) no. (%) | Stent thrombosis (ITT With STEMI): 10 (2.0) no. (%) | All-cause mortality (ITT Without STEMI): 31 (0.8) no. (%) | IDR (ITT Without STEMI): 54 (1.4) no. (%) | MI (ITT Without STEMI): 276 (7.1) no. (%) | Mortality/MI/IDR (ITT Without STEMI): 332 (8.6) no. (%) | Mortality/Q-wave MI/IDR (ITT Without STEMI): 88 (2.3) no. (%) | Mortality/Q-wave MI/Stent thrombosis (ITT Without STEMI): 56 (1.4) no. (%) | Q-wave MI (ITT Without STEMI): 15 (0.4) no. (%) | Stent thrombosis (ITT Without STEMI): 20 (0.5) no. (%) | All-cause mortality (MITT): 38 (0.9) no. (%) | IDR (MITT): 66 (1.5) no. (%) | MI (MITT): 292 (6.8) no. (%) | Mortality/MI/IDR (MITT): 360 (8.4) no. (%) | Mortality/Q-wave MI/IDR (MITT): 107 (2.5) no. (%) | Mortality/Q-wave MI/Stent thrombosis (MITT): 73 (1.7) no. (%) | Q-wave MI (MITT): 15 (0.4) no. (%) | Stent thrombosis (MITT): 30 (0.7) no. (%) | All-cause mortality (MITT With STEMI): 11 (2.5) no. (%) | IDR (MITT With STEMI): 14 (3.2) no. (%) | MI (MITT With STEMI): 16 (3.6) no. (%) | Mortality/MI/IDR (MITT With STEMI): 34 (7.7) no. (%) | Mortality/Q-wave MI/IDR (MITT With STEMI): 25 (5.6) no. (%) | Mortality/Q-wave MI/Stent thrombosis (MITT With STEMI): 21 (4.7) no. (%) | Q-wave MI (MITT With STEMI): 0 (0.0) no. (%) | Stent thrombosis (MITT With STEMI): 10 (2.3) no. (%) | All-cause mortality (MITT Without STEMI): 27 (0.7) no. (%) | IDR (MITT Without STEMI): 52 (1.4) no. (%) | MI (MITT Without STEMI): 276 (7.2) no. (%) | Mortality/MI/IDR (MITT Without STEMI): 326 (8.5) no. (%) | Mortality/Q-wave MI/IDR (MITT Without STEMI): 82 (2.1) no. (%) | Mortality/Q-wave MI/Stent thrombosis (MITT Without STEMI): 52 (1.4) no. (%) | Q-wave MI (MITT Without STEMI): 15 (0.4) no. (%) | Stent thrombosis (MITT Without STEMI): 20 (0.5) no. (%) | All-cause mortality (Safety population): 41 (0.9) no. (%) | IDR (Safety population): 67 (1.6) no. (%) | MI (Safety population): 293 (6.8) no. (%) | Mortality/MI/IDR (Safety population): 365 (8.5) no. (%) | Mortality/Q-wave MI/IDR (Safety population): 111 (2.6) no. (%) | Mortality/Q-wave MI/Stent thrombosis (Safety population): 76 (1.8) no. (%) | Q-wave MI (Safety population): 15 (0.3) no. (%) | Stent thrombosis (Safety population): 30 (0.7) no. (%) | Angiographic complications (site reported): Abrupt vessel closure (ITT): 22 (0.5) | Angiographic complications (site reported): Acute stent thrombosis (ITT): 5 (0.1) | Angiographic complications (site reported): Need for urgent CABG (ITT): 7 (0.2) | Angiographic complications (site reported): New thrombus or suspected thrombus (ITT): 23 (0.5) | Angiographic complications (site reported): Threatened abrupt closure (ITT): 12 (0.3) | Angiographic complications (site reported): Unsuccessful procedure (ITT): 103 (2.4) | Angiographic complications (site reported): Abrupt vessel closure (ITT With STEMI): 3 (0.7) | Angiographic complications (site reported): Acute stent thrombosis (ITT With STEMI): 0 (0.0) | Angiographic complications (site reported): Need for urgent CABG (ITT With STEMI): 0 (0.0) | Angiographic complications (site reported): New thrombus or suspected thrombus (ITT With STEMI): 7 (1.5) | Angiographic complications (site reported): Threatened abrupt closure (ITT With STEMI): 2 (0.4) | Angiographic complications (site reported): Unsuccessful procedure (ITT With STEMI): 11 (2.4) | Angiographic complications (site reported): Abrupt vessel closure (ITT Without STEMI): 19 (0.5) | Angiographic complications (site reported): Acute stent thrombosis (ITT Without STEMI): 5 (0.1) | Angiographic complications (site reported): Need for urgent CABG (ITT Without STEMI): 7 (0.2) | Angiographic complications (site reported): New thrombus or suspected thrombus (ITT Without STEMI): 16 (0.4) | Angiographic complications (site reported): Threatened abrupt closure (ITT Without STEMI): 10 (0.3) | Angiographic complications (site reported): Unsuccessful procedure (ITT Without STEMI): 92 (2.4) | Angiographic complications (site reported): Abrupt vessel closure (MITT): 22 (0.5) | Angiographic complications (site reported): Acute stent thrombosis (MITT): 5 (0.1) | Angiographic complications (site reported): Need for urgent CABG (MITT): 6 (0.1) | Angiographic complications (site reported): New thrombus or suspected thrombus (MITT): 22 (0.5) | Angiographic complications (site reported): Threatened abrupt closure (MITT): 12 (0.3) | Angiographic complications (site reported): Unsuccessful procedure (MITT): 103 (2.4) | Angiographic complications (site reported): Abrupt vessel closure (MITT NSTEMI): 19 (0.5) | Angiographic complications (site reported): Acute stent thrombosis (MITT NSTEMI): 5 (0.1) | Angiographic complications (site reported): Need for urgent CABG (MITT NSTEMI): 6 (0.2) | Angiographic complications (site reported): New thrombus or suspected thrombus (MITT NSTEMI): 16 (0.4) | Angiographic complications (site reported): Threatened abrupt closure (MITT NSTEMI): 10 (0.3) | Angiographic complications (site reported): Unsuccessful procedure (MITT NSTEMI): 92 (2.4) | Angiographic complications (site reported): Abrupt vessel closure (Safety population): 22 (0.5) | Angiographic complications (site reported): Acute stent thrombosis (Safety population): 5 (0.1) | Angiographic complications (site reported): Need for urgent CABG (Safety population): 6 (0.1) | Angiographic complications (site reported): New thrombus or suspected thrombus (Safety population): 22 (0.5) | Angiographic complications (site reported): Threatened abrupt closure (Safety population): 12 (0.3) | Angiographic complications (site reported): Unsuccessful procedure (Safety population): 103 (2.4)
